In series [1] the test system is S. aureus USA300. The series can be described thus: Scanning electron microscopy of treated cells. The note with it: S. aureus USA300, 10x the MIC, 0-4 hours. Format: cell-based, Staphylococcus aureus. The procedure: S. aureus USA300 cultures at different time points from the time-kill curve analysis (FIG. 2A, 0, 1, 2, and 4 hours) were used in this study. 30 μl of each cell suspension was spotted onto 12 mm glass or Aclar film round coverslips. A drop of fixative (100 μl of 2% glutaraldehyde, 4% formaldehyde in 0.1 M sodium cacodylate buffer pH 7.2) was added on top of the coverslip which was coated with 0.1% polylysine. After 30 minutes, additional fixative was added to the dish containing the coverslips and samples were left at 4° C. overnight. Samples were gently washed three times with 0.1 M sodium cacodylate buffer (pH 7.2) for 5-10 minutes each time and postfixed with osmium tetroxide 1% in 0.1M sodium cacodylate buffer pH 7.2 for 1 hour at room temperature. After rinsing three times with buffer, samples were dehydrated in a graded series of ethanol concentrations (30%, 50%, 70%, 90%) for 10 minutes each and three times in 100% ethanol (with molecular sieves) for 15 minutes each and then further dried in a critical point drier (Tousimis Autosamdri 931, USA). Samples were coated with 10 nm of iridium using a Leica ACE600 sputter coater.

Series [2] deals with S. aureus. The series can be described thus: Direct plating of S. aureus on cilagicin-containing agar plates (resistant colonies). The note with it: plating S. aureus directly on cilagicin-containing agar plates. It counts as cell-based, Staphylococcus aureus.
Series [3] relates to S. aureus USA300. It counts as cell-based, Staphylococcus aureus. As to the method: The effect of lipid II biosynthesis intermediates on cilagicin's antibacterial activity was evaluated using S. aureus USA300 and the general MIC assay methods described above with the following changes. Potential antagonizing compounds were mixed with cilagicin at a constant molar ratio of 5. Cilagicin mixed with solvent alone was used as a control. Premixed solutions were dried in vacuo for 2 hours to completely remove all organic solvent. They were then resuspended in LB broth and mixed with S. aureus. All assays were run in duplicate (n=2) and repeated two independent times (n=2).

Series [4] relates to S. aureus USA300. The series can be described thus: Membrane depolarization assay (DiSC3(5)). Format: cell-based, Staphylococcus aureus. To be noted: S. aureus exposed to 8-fold MIC. As to the method: The effect of cilagicin on membrane depolarization was analyzed using DiSC3(5) dye (Thermo Fisher, USA). Overnight cultures of S. aureus USA300 were harvested and resuspended in PBS (OD600 nm=0.37). Cell suspension (1 mL) and 10 μL of 4 μM DisC3(5) were pre-mixed and incubated in the dark at room temperature for 15 minutes. 50 μL of this mixture was then added to each well of black 96-well flat bottom black microtiter plates. The initial fluorescence intensity of each well was recorded using an infinite 200 PRO (Excitation/Emission=620/670 nm) at 9 second intervals for 15 minutes. 50 μL of a 1 μM solution of each test compound was then added to each well. Gramicidin (30 μM) and melittin (1 μM) were used as positive controls. DMSO was used as the vehicle control. The fluorescence intensity of each well was then monitored at 9 second intervals for another 15 minutes and plotted by Prism 9.0. All assays were performed in biological triplicate (n=3).

Series [5] in a line: Isothermal titration calorimetry (ITC). Format: binding. To be noted: 25° C., DOPC vesicles. The procedure:
Isothermal titration calorimetry (ITC) The interaction of cilagicin and undecaprenyl phosphate (C55-P, Larodan, SE) or undecaprenyl diphosphate (C55-PP, Larodan, SE) was measured using ITC. Briefly, 0.1 μm of large unilamellar vesicles (LUVs) was prepared by mixing 1,2-dioleoyl-sn-glycero-3-phosphocholine (DOPC, Avanti, AL) and 0.1% of either C55-P or C55-PP in chloroform/methanol (2:1). The resulting lipid suspension was dried under argon gas for 2 hours and then rehydrated in 10 mM HEPES buffer (pH 7.5, 100 mM NaCl). The dried sample was filtered 10 times through an Avanti mini extruder (Avanti, AL) using a 0.1 μM filter membrane. ITC binding experiments were performed using a MicroCal Auto-iTC200. A vesicle suspension of 0.27 μM C55-P or 0.25 μM C55-PP and 2.5 mM DOPC in HEPES buffer was titrated into a freshly made solution of 0.1 mM cilagicin in the same buffer. The titration was conducted under the following conditions: temperature 25° C., reference power 5 uCals-1, syringe-stirring speed 750 rpm, number of injections 19, injection volume 2 μl, and time between injections 150 s. The calorimetric data obtained from the Auto-iTC200 instrument was analyzed using AFFINImeter software. Thermodynamic parameters (enthalpy (AH), entropy (AS), and the equilibrium binding constant (KD)) were calculated using a one-binding site model.
On the technique in general: In ITC the heat of successive injections is recorded.

Series [6] concerns cell wall biosynthesis (UDP-MurNAc-pentapeptide) in S. aureus USA300. The series can be described thus: UDP-MurNAc-pentapeptide accumulation assay. To be noted: S. aureus cultures exposed at 1xMIC. Format: cell-based, Staphylococcus aureus. The procedure:
The effect of cilagicin on cell wall biosynthesis was investigated by tracking the accumulation UDP-MurNAc-pentapeptide in antibiotic treated cultures. Overnight S. aureus USA300 cultures were diluted in fresh LB broth and grown at 37° C. to an OD600 nm of 0.5. They were then treated with 130 μg/mL of chloramphenicol. After incubating at 37° C. for 15 minutes, 1 μg/mL of cilagicin was added. Vancomycin (10 μg/mL) and DMSO were used as positive and vehicle control, respectively. After an incubation of 60 mins, cells (0.5 mL) were harvested, and the cell pellet was resuspended in 30 μL ddH2O. The cell suspension was incubated in boiling water for 15 minutes and spun down at 15,000×g for 5 minutes. The supernatant was then analyzed by UPLC-DAD-MS (Acquity UPLC BEH C18, 2.1×50 mm, 1.7 μM, 130 Å, […] isocratic elution at 97% water:acetonitrile (ACN) for 1 minute, then from 97% to 5% water:ACN over 3 minutes, with constant 0.1% formic acid; negative ionization modes).

For series [7] the following is noted: mice, intraperitoneal (IP) injection.

Like-named read-outs stand apart in the source and are kept apart here. Positions of bridges follow the written chain, without caps; N, C: chain ends. Non-standard residues stand in square brackets, D forms with d. Residues, ends and D or L forms follow the SMILES beside them. *: point of attachment. Myristoyl = CCCCCCCCCCCCCC(=O)*; dDab = NCC[C@@H](N)C(=O)O; Dab = NCC[C@H](N)C(=O)O

In general, Kd refers to a measure of binding affinity in units of concentration. Take `CCCCCCCCCCCCCC(=O)N[C@H](CO)C(=O)N[C@@H]1C(=O)N[C@H](CCN)C(=O)N[C@@H](CC(=O)O)C(=O)NCC(=O)N[C@H](CC(N)=O)C(=O)N[C@H](CC(=O)O)C(=O)NCC(=O)N[C@@H](Cc2ccc(O)cc2)C(=O)N[C@@H](C(C)C)C(=O)N[C@@H](CCN)C(=O)N[C@@H](Cc2ccccc2)C(=O)O[C@@H]1C` [Cilagicin] (Myristoyl-[dS]T[dDab]DG[dN][dD]GYV[Dab]F; ester 2-C): in series [1], the “electron microscopy images of treated cells” value was “cell collapse over time”. Further, the “colonies that showed more than a 2-fold increase in MIC (2 μg/mL)” value in series [2] is “never observed”. Moreover, the “molar ratio at which C55-P completely inhibited the bioactivity” value in series [3] (S. aureus USA300, C55-P) is on record as ~ 1.25. The “molar ratio at which C55-PP gave complete inhibition” value in series [3] (S. aureus USA300, C55-PP) is recorded as ~ 2.5. Also, the “MIC in the presence of C55-P” value in series [3] (USA300) is ≥ 64 µg/mL. Further, in series [4], the “membrane depolarization (DiSC3(5) fluorescence)” value is recorded as “No response was detected”. Further, the Kd was determined as 22 nM in series [5] (read-out: dissociation constant (Kd), C55P) and 56 nM in series [5] (read-out: dissociation constant (Kd), C55PP). Moreover, in series [6], the “accumulation of UDP-MurNAc-pentapeptide (LCMS)” value is reported as “obvious accumulation”. In series [7], the plasma bioavailability entry is recorded as “high plasma bioavailability”.

The record behind these values is patent publication US20260193295A1, “CILAGICIN COMPOUNDS AND METHODS OF USE THEREOF” (priority 2022, published 2026).
